This is an account of results in patent US4285942A, “Cyclododecanone oximes” (Egyt Gyogyszervegyeszeti Gyar, priority 1978, dated 1981).

A word on the LD50: it is the dose expected to kill half of the subjects tested. Low readings indicate greater toxicity, high ones lower toxicity. For orientation: ED50 means the dose that gives a 50% effect, or the effect in half of the subjects. Low readings indicate greater potency, high ones weaker potency.

For data set [1], the system named is isolated rat ileum. Kind of data set: Spasmolytic effect on smooth muscle, isolated rat ileum (method of Brock), papaverine as reference. As to conditions: relative to papaverine. As to the method: The spasmolytic effect on smooth muscle was determined on isolated rat ileum according to the method of Brock et al. [H. Brock, J. Ceks, D. Lorenz: Arch. Exper. Path. u. Pharmacol. 215, 492/1952/] by using papaverine as the reference substance. In order to characterize the efficiency of the individual compounds their relative effect with respect to papaverine are enumerated in Table 2 below.

A short description of data set [2]: in vivo. As to conditions: mouse, mice, oral.
Data set [3] has as its system ischiadic nerve (N. ischiadieus). The data set is described as follows: Local anaesthetizing effect on the ischiadic nerve of rats (method of Truant), Lidocaine as reference. In kind it is in vivo. As to conditions: for Relative efficiency: local anaesthesia, relative to Lidocaine. As to the method:
The local anaesthetizing effect was investigated on the ischiadic nerve (N. ischiadieus) of rats by the method of Truant [A. P. Truant, d'Amato cited in A. P. Truant, S. Wiedling: Acta Chirurg. Scand. 116, 351 (1958)], by using Lidocaine as the reference substance. The number of animals showing the characteristic motoric paralysis and the duration of the effect were recorded. The relative efficiency with respect to Lidocaine and the duration of the effect observed on applying a 0.25% and 0.5% concentration are presented in Table 3.

Data set [4] has as its system nicotine-lethality. The data set is described as follows: Nicotine-lethality inhibiting effect in mice, oral (method of Stone). In kind it is in vivo. As to conditions: Mus musculus, nicotine-lethality inhibition, mice, groups of ten animals. As to the method: (§1) The nicotine-lethality inhibiting effect was determined on mice by the method of Stone [C. A. Stone et al.: Arch. Intern.

Test in data set [5]: as above
Format: in vivo. As to conditions: mouse, in vivo, LD50 and ED50 in mice, read-out: Therapeutic index. As to the method:
as §1

In the case of `CN(C)CCCON=C1CCCCCCCCCCC1` [Example 1, 1-(Dimethylamino-propoxyimino)cyclododecane], the figures for the Relative efficiency in data set [1] and in data set [3] were 1.4 and 0.77, respectively. The LD50 in data set [2] worked out at 560 mg/kg. In addition, the Duration of effect in data set [3] (0.25% concentration) was 45 min; in data set [3] (0.5% concentration), 95 min. This compound displayed an ED50 in data set [4] of 39 mg/kg. In addition, in data set [5], the selectivity ratio was 14.4.
Compound `CC(C)N(CCCON=C1CCCCCCCCCCC1)C(C)C` [Example 12, 1-(Diisopropylamino-propoxyimino)cyclododecane] came in with an LD50 in data set [2] of 650 mg/kg. Further, the results for the Duration of effect in data set [3] (0.25% concentration) and in data set [3] (0.5% concentration) were 77 min and 240 min, respectively. Further, the Relative efficiency in data set [3] was 1.68. The 50% effective dose (ED50) in data set [4] came out at 130 mg/kg. Further, the selectivity ratio in data set [5] came to 5.
`OC(CCN1CCCCC1)(c1ccccc1)C1CCCCC1` (stereo not shown) [Artane, 1-cyclohexyl-1-phenyl-3-piperidino-propane-1-ol, reference compound] gave an ED50 in data set [4] of 40 mg/kg.
In turn, `CC(C)N(CCON=C1CCCCCCCCCCC1)C(C)C` [Example 5, 1-(Diisopropylamino-ethoxyimino)cyclododecane] registered a 50% lethal dose (LD50) in data set [2] of 800 mg/kg. In addition, the Duration of effect in data set [3] (0.25% concentration) amounted to 31 min; in data set [3] (0.5% concentration) it was 60 min. The compound further registered a Relative efficiency in data set [3] of 0.71. For the same compound, the ED50 in data set [4] was found to be 10 mg/kg. Moreover, the selectivity ratio in data set [5] stood at 80.
Consider `CC(CON=C1CCCCCCCCCCC1)CN(C)C` (racemic) [Example 4, D,L-1-(3'-Dimethylamino-2'-methylpropoxyimino)cyclododecane], for which the Relative efficiency in data set [1] is 4.1; in data set [3], 0.63. The same compound registered a median lethal dose (LD50) in data set [2] of 680 mg/kg. The results for the Duration of effect in data set [3] (0.25% concentration) and in data set [3] (0.5% concentration) were 32 min and 105 min, respectively. Further, the 50% effect level in data set [4] (ED50) was put at a dose of 46 mg/kg. Moreover, in data set [5], the selectivity ratio stood at 14.8.
For `CCN(CC)CCCON=C1CCCCCCCCCCC1` [Example 10, 1-(Diethylamino-propoxyimino)cyclododecane], the values for the Relative efficiency in data set [1] and in data set [3] were 2.9 and 2.00, respectively. Further, the Duration of effect in data set [3] (0.25% concentration) was 76 min; in data set [3] (0.5% concentration), 104 min.
Consider `c1ccc(CN2CCN(CCCON=C3CCCCCCCCCCC3)CC2)cc1` [Example 6, 1-(N-Benzylpiperazinyl-propoxyimino)cyclododecane], for which the Relative efficiency was 0.9 in data set [1] and 0.52 in data set [3]. This compound returned a 50% lethal dose (LD50) in data set [2] of 900 mg/kg. Moreover, the Duration of effect is 60 min in data set [3] (0.25% concentration) and 134 min in data set [3] (0.5% concentration). For the same compound, the ED50 in data set [4] was found to be 180 mg/kg. Further, the selectivity ratio in data set [5] is 5.
The compound `COc1ccc(Cc2nccc3cc(OC)c(OC)cc23)cc1OC` [Papaverine, reference compound] gave a Relative efficiency in data set [1] of 1.0.
`CCN(CC)CC(=O)Nc1c(C)cccc1C` [Lidocaine, reference compound]: the figures for the Duration of effect in data set [3] (0.25% concentration) and in data set [3] (0.5% concentration) were 24 min and 28 min, respectively. Moreover, in data set [3], the Relative efficiency is listed as 1.0.
On to `CCN(CC)CC(C)CON=C1CCCCCCCCCCC1` (stereo not shown) [Example 11, 1-(3'-Diethylamino-2'-methyl-propoxyimino)cyclododecane], for which the values for the Relative efficiency in data set [1] and in data set [3] were 2.6 and 1.86, respectively. For the same compound, in data set [2], the 50% lethal dose (LD50) stood at 400 mg/kg. The Duration of effect in data set [3] (0.25% concentration) amounted to 151 min; in data set [3] (0.5% concentration), 240 min. In data set [4], this compound yielded an ED50 of 80 mg/kg. Moreover, the selectivity ratio in data set [5] was 5.
Turning to `CN1CCN(CCCON=C2CCCCCCCCCCC2)CC1` [Example 7, 1-(N-methylpiperazinyl-propoxyimino)cyclododecane], the median lethal dose (LD50) in data set [2] is 1100 mg/kg. The ED50 in data set [4] was found to be 68 mg/kg. Also, the selectivity ratio in data set [5] worked out at 16.2.
`CN(C)CCON=C1CCCCCCCCCCC1` [Example 2, 1-(Dimethylamino-ethoxyimino)cyclododecane] displayed a median lethal dose (LD50) in data set [2] of 780 mg/kg. The Duration of effect in data set [3] (0.25% concentration) stood at 23 min; in data set [3] (0.5% concentration), 57 min. This compound registered a Relative efficiency in data set [3] of 0.67. In data set [4], this compound had an ED50 of 28 mg/kg. In addition, the selectivity ratio in data set [5] turned out to be 27.9.
